This passage reports IC50 results from patent US10045985B2, “Heteroaryl compounds as BTK inhibitors and uses thereof” (Merck Patent GmbH, priority 2015, dated 2018).

Experiment [1] addresses T1, full-length human BTK (Homo sapiens, UniProt Q06187).
T1 construct: full-length human BTK (08-080) from CarnaBio USA, Inc; purchased CarnaBio USA, Inc., Natick, Mass; 08-080
Put plainly: Assay A: microfluidic off-chip mobility shift assay for potency against BTK enzyme. Format: biochemical. The conditions noted are these: 90 min at 27° C. From the text: Assay A: Microfluidic Off-Chip Mobility Shift Assay Protocol for Potency Assessment Against BTK Enzyme
The protocol below describes microfluidic, off-chip mobility shift kinase assay to measure inherent potency of compounds against BTK enzyme. The mechanics of the assay platform are best described by the vendor (Caliper Life Sciences, a PerkinElmer Company, Hopkinton, Mass.) on their website at the following URL:
Briefly, 2.5× stocks of full-length human BTK (08-080) from CarnaBio USA, Inc., Natick, Mass., 1.6×ATP and appropriate kinKDR peptide substrate (FITC-AHA-EEPLYWSFPAKKK-NH2; developed in-house) were prepared in kinase reaction buffer consisting of 25 mM MgCl2, 0.015% Brij-35 (30%), 100 mM Hepes, pH 7.5, and 10 mM DTT.
5 uL of enzyme buffer and 7.5 uL of ATP/kinKDR peptide substrate mix were added to Matrix (#115304) 384-well, sterile, polypropylene plates (Thermo Fisher Scientific, Hudson, N.H.) with 125 nL of serially diluted compounds prepared in 100% DMSO, and incubated for 90 min. at 27° C. following the incubation period, reactions were stopped by adding 60 uL stop buffer consisting of 100 mM Hepes, pH 7.5, 0.015% Brij-35 (30%), 0.277% Coating Reagent #3 (Caliper Life Sciences, Mountain View, Calif.), 5% DMSO. Stopped reactions were monitored at −2 PSI, −3000 V/−700 V in a LabChip 3000 plate reader from Caliper Life Sciences, a PerkinElmer Company (Hopkinton, Mass.), and the activity was measured by off-chip mobility shift assay measuring the charge/mass difference between substrate and product resulting from peptide phosphorilation. IC50 and efficacy were determined by plotting log [Inhibitor] vs. % Activity in GeneData Screener (Basel, Switzerland).

Experiment [2] addresses T2, BTK C481S enzyme (His-TEV-hsBTK(328-659)(C481S)) (Homo sapiens, UniProt Q06187, C481S).
T2 construct: His-TEV-hsBTK(328-659)(C481S); His (N); TEV cleavage site (N)
Put plainly: Assay B: microfluidic off-chip mobility shift assay for potency against BTK C481S enzyme. To be noted: 90 min at 25° C. Format: biochemical. From the text:
Assay B: Microfluidic Off-Chip Mobility Shift Assay Protocol for Potency Assessment Against BTK C481S Enzyme
The protocol below describes a microfluidic, off-chip mobility shift kinase assay to measure inherent potency of compounds against BTK C481S enzyme. The mechanics of the assay platform are described by the vendor (PerkinElmer, Hopkinton, Mass.) on their website at the following URL: http://caliperls.com.
Briefly, 2.5× stocks of His-TEV-hsBTK(328-659)(C481S) from the Merck Serono Protein Purification Laboratory in Darmstadt, Germany (PCS, Q27/234), 1.6×ATP and appropriate KinKDR peptide substrate (FITC-AHA-EEPLYWSFPAKKK-NH2; Tufts University Core Facility custom synthesis) were prepared in kinase reaction buffer consisting of 25 mM MgCl2, 0.015% Brij-35 (30%), 100 mM HEPES, pH 7.5, and 10 mM DTT.
5 uL of enzyme buffer and 7.5 uL of ATP/KinKDR peptide substrate mix were added to Matrix (#4315) 384-well, sterile, flat-bottom polypropylene plates (Thermo Fisher Scientific, Hudson, N.H.) with 125 nL of serially diluted compounds prepared in 100% DMSO, and incubated for 90 min. at 25° C. Following the incubation period, reactions were terminated by adding 65 uL quench buffer consisting of 100 mM HEPES, pH 7.5, 0.015% Brij-35 (30%), 0.277% Coating Reagent #3 (PerkinElmer, Mountain View, Calif.), 5% DMSO. Terminated reactions were monitored at −2 PSI, −3000 V/−700 Volts in a LabChip 3000 plate reader from Caliper Life Sciences, a PerkinElmer Company (Hopkinton, Mass.), and the activity was quantified by laser-induced fluorescence measuring the charge/mass difference between substrate and product resulting from peptide phosphorylation. IC50 and efficacy were determined by plotting log [Inhibitor] vs. % Activity in GeneData Screener (Basel, Switzerland).

Experiment [3] has as its system anti-IgM-induced expression of CD69 in human peripheral blood mononuclear cells (PBMCs). Nature of the experiment: Assay C: time dependent PMBC IC50 assay (anti-IgM-induced CD69 expression on CD19 positive cells). In kind it is cell-based. To be noted: PBMC, 1 h pre-treatment, anti-IgM overnight, CD69 on CD19 positive B cells. From the text:
Assay C: Time Dependent PMBC IC50 Assay
Btk is critical for mediating the signalling of B cell antigen receptor (BCR) after anti-IgM stimulation. Based on this principle, a functional cell-based assay was established to determine the potency of compounds at inhibiting anti-IgM-induced expression of CD69, a downstream BCR signaling event, in freshly isolated human peripheral blood mononuclear cells (PBMCs). In the assay, a 90 al PBMC suspension containing 2.5×10^5 cells was pre-treated with 10 al of test compound at various concentrations for an hour, and then incubated overnight (approximately 16-18 hours) with 5 μl 420 μg/ml affiniPure F(ab′)2 fragment goat anti-human IgM Fc fragment per well (Dianova, Cat. No.: 109-006-129). After the incubation, the cells were washed and immunostained with an APC-labeled mouse anti-human CD69 (BD Biosciences; clone: FN50), a PerCP-Cy5.5 labelled mouse anti-human CD19 (BD Biosciences; clone: SJ25C1) and a FITC-labelled mouse anti-human CD3 (BD Biosciences; clone: HIT3a), and fixed for flow cytometric analysis of CD69 expression on CD19 positive cells (B cells). The percentage of CD69 expressing CD19 positive cells was plotted against the concentrations of test compounds to obtain a concentration response curve, and calculate an IC50 value as a measure of the potency of test compounds in the assay.

SMILES strings stand for the structures.

T1 sequence (Q06187 whole entry): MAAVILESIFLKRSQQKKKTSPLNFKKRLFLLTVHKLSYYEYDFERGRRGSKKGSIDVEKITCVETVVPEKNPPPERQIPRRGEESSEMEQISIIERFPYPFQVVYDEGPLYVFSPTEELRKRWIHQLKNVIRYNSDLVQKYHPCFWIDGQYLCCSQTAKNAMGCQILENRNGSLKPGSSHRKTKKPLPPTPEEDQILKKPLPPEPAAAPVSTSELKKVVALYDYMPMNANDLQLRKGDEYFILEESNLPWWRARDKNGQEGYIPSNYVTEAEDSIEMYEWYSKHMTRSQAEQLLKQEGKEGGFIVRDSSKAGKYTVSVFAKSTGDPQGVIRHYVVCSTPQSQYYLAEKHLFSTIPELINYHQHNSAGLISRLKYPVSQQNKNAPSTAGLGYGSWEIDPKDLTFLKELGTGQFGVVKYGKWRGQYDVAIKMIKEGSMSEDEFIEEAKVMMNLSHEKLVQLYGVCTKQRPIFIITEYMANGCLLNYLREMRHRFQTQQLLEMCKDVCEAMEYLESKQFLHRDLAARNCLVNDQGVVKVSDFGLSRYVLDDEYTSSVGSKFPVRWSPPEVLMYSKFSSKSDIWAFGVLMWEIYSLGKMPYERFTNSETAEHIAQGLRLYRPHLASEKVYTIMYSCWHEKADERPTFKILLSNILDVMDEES
T2 sequence (Q06187 328-659 C481S): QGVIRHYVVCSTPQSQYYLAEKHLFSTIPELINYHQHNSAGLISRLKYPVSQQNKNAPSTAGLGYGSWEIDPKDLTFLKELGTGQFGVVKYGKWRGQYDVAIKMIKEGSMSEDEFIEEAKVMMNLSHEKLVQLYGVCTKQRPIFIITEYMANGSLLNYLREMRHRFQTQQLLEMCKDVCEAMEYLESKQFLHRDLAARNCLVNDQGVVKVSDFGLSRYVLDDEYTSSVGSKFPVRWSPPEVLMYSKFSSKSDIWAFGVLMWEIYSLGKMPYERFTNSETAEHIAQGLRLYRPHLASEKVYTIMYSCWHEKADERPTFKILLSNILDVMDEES

As for `COCCOc1ccc(Nc2ncc(F)c(NC3CCCC(NC(=O)c4ccc(C5CC5)cc4)C3)n2)cc1` (stereo not shown) [Compound 10, 4-cyclopropyl-N-(3-((5-fluoro-2-((4-(2-methoxyethoxy)phenyl)amino)pyrimidin-4-yl)amino)cyclohexyl)benzamide], the results for the concentration for half-maximal inhibition (IC50) in experiment [1], in experiment [2] and in experiment [3] were 0.1 to 1 µM, 0.1 to 1 µM and greater than 5 µM, respectively.
`COCCOc1ccc(Nc2ncc(F)c(N[C@@H]3CCC[C@@H](NC(=O)c4ccc(C(C)(C)C)cc4)C3O)n2)cc1` (stereo partly shown) [Compound 24]: the IC50 in experiment [1] and in experiment [2] was less than 0.1 µM each time.
As for `COCCOc1ccc(Nc2ncc(F)c(N3CCC[C@@H](NC(=O)CNc4cccc(Cl)c4)C3)n2)cc1` [Compound 2, (R)-2-((3-chlorophenyl)amino)-N-(1-(5-fluoro-2-((4-(2-methoxyethoxy)phenyl)amino)pyrimidin-4-yl)piperidin-3-yl)acetamide], the concentration for half-maximal inhibition (IC50) in experiment [1] and in experiment [2] was greater than 5 µM each time.
As for `COCCOc1ccc(Nc2ncc(F)c(NC3CCCC(NC(=O)c4ccc(C(C)(C)C)cc4)C3O)n2)cc1` (racemic) [Compound 16, 4-(tert-butyl)-N-(3-((5-fluoro-2-((4-(2-methoxyethoxy)phenyl)amino)pyrimidin-4-yl)amino)-2-hydroxycyclohexyl)benzamide], the results for the half-inhibitory concentration (IC50) in experiment [1], in experiment [2] and in experiment [3] were less than 0.1 µM, less than 0.1 µM and 1 to 5 µM, respectively.
